Laboratory results published in ChEMBL document CHEMBL5053502, “Too Hot to Handle: Antibacterial Peptides Identified in Ghost Pepper” (J Nat Prod, 2021).
≈ marks a conversion by molar mass, not a printed value. Calls of active or inactive are those of the source. The calls are words filed in the database; no cut-off is given here. Where a SMILES comes first, the peptide text is derived from it. Bridges are numbered along the chain shown (N, C = ends). [ ]: non-standard residue; d: D form. pGlu = O=C1CC[C@@H](C(=O)O)N1

What was measured:
Escherichia coli = test: Antibacterial activity against Escherichia coli ATCC 25922 assessed as bacterial growth inhibition incubated for 4 hrs followed by resazurin addition and measured after 1 hr by fluorescence based analysis; assay type: functional, organism-based
Acinetobacter baumannii [1] = test: Antibacterial activity against Acinetobacter baumannii 5075 assessed as bacterial growth inhibition incubated for 5 hrs by absorbance based analysis; assay type: functional, organism-based; conditions: Acinetobacter baumannii, 5075, 5 h
Acinetobacter baumannii [2] = test: Bactericidal activity against Acinetobacter baumannii 5075 assessed as reduction in cell viability incubated for 24 hrs; assay type: functional
Cell membrane [3] = test: Induction of outer membrane permeabilization in Escherichia coli ATCC 25922 assessed as increase in NPN uptake at 10 to 40 uM by NPN-dye based fluorescence analysis; assay type: subcellular; conditions: dose 10-40 µM
Cell membrane [4] = test: Induction of inner membrane permeabilization in Escherichia coli ATCC 25922 assessed as increase in absorbance at 420 nm in presence of ONPG by absorbance based assay; assay type: subcellular
[5] = Hemolytic activity in human RBC assessed as hemolysis at 2.5 to 40 uM incubated for 1 hr by absorbance based analysis; assay type: ADME, tissue-based; conditions: erythrocyte, dose 2.5-40 µM
Pseudomonas aeruginosa = test: Antibacterial activity against Pseudomonas aeruginosa 1423 assessed as bacterial growth inhibition incubated for 7 hrs by absorbance based analysis; conditions: Pseudomonas aeruginosa, 1423, 7 h
Klebsiella pneumoniae = test: Antibacterial activity against Klebsiella pneumoniae VK148 assessed as bacterial growth inhibition incubated for 4 hrs followed by resazurin addition and measured after 1 hr by fluorescence based analysis

| Activity (Cell membrane [3]) [%] | Activity (Cell membrane [4]) | Compound | IC50 (Escherichia coli) [µM] | IC50 (Acinetobacter baumannii [1]) [µM] | MBC (Acinetobacter baumannii [2]) [µM] | Activity [5] | IC50 (Pseudomonas aeruginosa) [µM] | IC50 (Klebsiella pneumoniae) [µM] |
| --- | --- | --- | --- | --- | --- | --- | --- | --- |
|  |  | CC[C@H](C)[C@H](NC(=O)[C@H](CCCCN)NC(=O)CNC(=O)[C@H](CC(C)C)NC(=O)CNC(=O)[C@H](CCCCN)NC(=O)[C@@H](NC(=O)[C@H](CC(C)C)NC(=O)[C@H](Cc1cnc[nH]1)NC(=O)[C@H](CCCNC(=N)N)NC(=O)CNC(=O)[C@@H](NC(=O)[C@@H](N)CCCCN)C(C)C)C(C)C)C(=O)N[C@@H](Cc1ccccc1)C(=O)N[C@@H](CCCNC(=N)N)C(=O)N[C@@H](C)C(=O)NCC(=O)N[C@H](CCCCN)C(=O)N[C@@H](C(=O)N[C@H](C(=O)N[C@@H](Cc1ccccc1)C(=O)N[C@H]1CSSC[C@@H](C(=O)N[C@@H](CCCCN)C(=O)N[C@H](C(=O)N[C@H]2CSSC[C@@H](C(=O)N[C@@H](C)C(=O)O)NC(=O)[C@@H]3CSSC[C@H](NC(=O)[C@H](CC(C)C)NC(=O)CNC(=O)[C@H](CC(N)=O)NC2=O)C(=O)N[C@@H](CC(=O)O)C(=O)N[C@@H](Cc2ccc(O)cc2)C(=O)N3)[C@@H](C)O)NC(=O)[C@H]([C@@H](C)O)NC(=O)[C@H](CC(N)=O)NC1=O)[C@@H](C)CC)C(C)C | 7.6 |  |  |  |  |  |
| 100 | Active | CC[C@H](C)[C@@H]1NC(=O)[C@@H]2CSSC[C@H](NC(=O)[C@H](CCCCN)NC(=O)[C@H](C)NC(=O)[C@H](CCSC)NC(=O)[C@@H](NC(=O)[C@@H](NC(=O)[C@@H]3CCCN3C(=O)[C@H](CC(=O)O)NC(=O)[C@H](CC(C)C)NC(=O)[C@@H](NC(=O)[C@H](CCC(=O)O)NC(=O)[C@@H]3CCC(=O)N3)[C@@H](C)O)[C@@H](C)CC)CSSC[C@@H](C(=O)N[C@H](C(=O)N[C@@H](CC(C)C)C(=O)O)C(C)C)NC(=O)CNC(=O)[C@H](C)NC1=O)C(=O)N[C@@H](C(C)C)C(=O)N[C@@H](CC(C)C)C(=O)N[C@@H](CCCCN)C(=O)N[C@H]1CSSC[C@H](NC(=O)[C@H](Cc3c[nH]c4ccccc34)NC(=O)[C@H](C)NC(=O)[C@H](CCCCN)NC(=O)[C@H](CCCCN)NC(=O)CNC1=O)C(=O)N[C@@H](CC(C)C)C(=O)N[C@@H]([C@@H](C)O)C(=O)N[C@@H](CCCCN)C(=O)N2 ([pGlu]ETLDPICMAKCVLKCGKKAWCLTKCIAGCVL-OH; disulfide 8-30, 12-26, 16-22) | 14.5 | 4 | 8.6 (≈ 29.7 µg/mL) | Non-Toxic | 6.9 | 13.2 |
